The values that follow come from patent US6555134B1, “Synergistic mixtures of garlic and lycopene for preventing LDL oxidation” (Lycored Natural Products Industries Ltd., priority 1998, dated 2003).

Read-outs that look alike come from different tables or passages of the source. Marks after values point to notes of the source that are not given here.

One assay concerns LDL. The assay is described as follows: copper ions-induced LDL oxidation (TBARS, lipids). The settings on record: Experiment 1; lycopene 5 μg/ml. The class given is biochemical, human. The protocol:
LDL was separated from human plasma by discontinuous density gradient ultracentrifugation and dialyzed against saline: EDTA (1 mM). Before oxidation LDL was diluted in PBS to 100 ug protein/ml, and dialyzed overnight against PBS at 4° C. LDL was oxidized by a metal ion dependent mechanism, by incubation for 24 hours at 37° C. with 5 uM CuSO4 freshly prepared as well as by determination of the thiobarbituric acid reactive substance (TBARS). Lycopene, as well as tomato oleoresin containing 5% lycopene, were dissolved in tetrahydrofuran (THF), 0.5 mg/ml stock solution for pure lycopene, and 10 mg/ml stock solution for the oleoresin. Garlic powder was extracted with water, dried, and resolubilized in water at a concentration of 0.25 mg of allicin equivalentsml for a stock solution. The synergistic effects of a combination of garlic and lycopene on copper ions-induced LDL oxidation was studied. Details are shown in Table 1, affording the individual components of the Abbott Equation used to calculate synergism as follows: [formula] where A=Percent Control of garlic alone B=Percent Control of Lycopene alone where IF=Actual control in Percent IE=Expected control in Percent Following the method of Experiment 1, the synergistic effect of a combination of garlic and lycopene as in Experiment 1; but using tomato oleoresin was run.

A further assay has as its system blood lymphocytes. To be noted: NO2 radical damage; cited from earlier work.
The next assay relates to Cultured rat hepatocytes. To be noted: cited from earlier work.
The next assay concerns the target T1, fatty acid synthetase (Rattus norvegicus, UniProt P12785).
T1 construct: Cultured rat hepatocytes; host or cells: primary rat hepatocyte cultures
To be noted: at very high concentration; cited from earlier work.

T1 sequence (P12785 whole entry): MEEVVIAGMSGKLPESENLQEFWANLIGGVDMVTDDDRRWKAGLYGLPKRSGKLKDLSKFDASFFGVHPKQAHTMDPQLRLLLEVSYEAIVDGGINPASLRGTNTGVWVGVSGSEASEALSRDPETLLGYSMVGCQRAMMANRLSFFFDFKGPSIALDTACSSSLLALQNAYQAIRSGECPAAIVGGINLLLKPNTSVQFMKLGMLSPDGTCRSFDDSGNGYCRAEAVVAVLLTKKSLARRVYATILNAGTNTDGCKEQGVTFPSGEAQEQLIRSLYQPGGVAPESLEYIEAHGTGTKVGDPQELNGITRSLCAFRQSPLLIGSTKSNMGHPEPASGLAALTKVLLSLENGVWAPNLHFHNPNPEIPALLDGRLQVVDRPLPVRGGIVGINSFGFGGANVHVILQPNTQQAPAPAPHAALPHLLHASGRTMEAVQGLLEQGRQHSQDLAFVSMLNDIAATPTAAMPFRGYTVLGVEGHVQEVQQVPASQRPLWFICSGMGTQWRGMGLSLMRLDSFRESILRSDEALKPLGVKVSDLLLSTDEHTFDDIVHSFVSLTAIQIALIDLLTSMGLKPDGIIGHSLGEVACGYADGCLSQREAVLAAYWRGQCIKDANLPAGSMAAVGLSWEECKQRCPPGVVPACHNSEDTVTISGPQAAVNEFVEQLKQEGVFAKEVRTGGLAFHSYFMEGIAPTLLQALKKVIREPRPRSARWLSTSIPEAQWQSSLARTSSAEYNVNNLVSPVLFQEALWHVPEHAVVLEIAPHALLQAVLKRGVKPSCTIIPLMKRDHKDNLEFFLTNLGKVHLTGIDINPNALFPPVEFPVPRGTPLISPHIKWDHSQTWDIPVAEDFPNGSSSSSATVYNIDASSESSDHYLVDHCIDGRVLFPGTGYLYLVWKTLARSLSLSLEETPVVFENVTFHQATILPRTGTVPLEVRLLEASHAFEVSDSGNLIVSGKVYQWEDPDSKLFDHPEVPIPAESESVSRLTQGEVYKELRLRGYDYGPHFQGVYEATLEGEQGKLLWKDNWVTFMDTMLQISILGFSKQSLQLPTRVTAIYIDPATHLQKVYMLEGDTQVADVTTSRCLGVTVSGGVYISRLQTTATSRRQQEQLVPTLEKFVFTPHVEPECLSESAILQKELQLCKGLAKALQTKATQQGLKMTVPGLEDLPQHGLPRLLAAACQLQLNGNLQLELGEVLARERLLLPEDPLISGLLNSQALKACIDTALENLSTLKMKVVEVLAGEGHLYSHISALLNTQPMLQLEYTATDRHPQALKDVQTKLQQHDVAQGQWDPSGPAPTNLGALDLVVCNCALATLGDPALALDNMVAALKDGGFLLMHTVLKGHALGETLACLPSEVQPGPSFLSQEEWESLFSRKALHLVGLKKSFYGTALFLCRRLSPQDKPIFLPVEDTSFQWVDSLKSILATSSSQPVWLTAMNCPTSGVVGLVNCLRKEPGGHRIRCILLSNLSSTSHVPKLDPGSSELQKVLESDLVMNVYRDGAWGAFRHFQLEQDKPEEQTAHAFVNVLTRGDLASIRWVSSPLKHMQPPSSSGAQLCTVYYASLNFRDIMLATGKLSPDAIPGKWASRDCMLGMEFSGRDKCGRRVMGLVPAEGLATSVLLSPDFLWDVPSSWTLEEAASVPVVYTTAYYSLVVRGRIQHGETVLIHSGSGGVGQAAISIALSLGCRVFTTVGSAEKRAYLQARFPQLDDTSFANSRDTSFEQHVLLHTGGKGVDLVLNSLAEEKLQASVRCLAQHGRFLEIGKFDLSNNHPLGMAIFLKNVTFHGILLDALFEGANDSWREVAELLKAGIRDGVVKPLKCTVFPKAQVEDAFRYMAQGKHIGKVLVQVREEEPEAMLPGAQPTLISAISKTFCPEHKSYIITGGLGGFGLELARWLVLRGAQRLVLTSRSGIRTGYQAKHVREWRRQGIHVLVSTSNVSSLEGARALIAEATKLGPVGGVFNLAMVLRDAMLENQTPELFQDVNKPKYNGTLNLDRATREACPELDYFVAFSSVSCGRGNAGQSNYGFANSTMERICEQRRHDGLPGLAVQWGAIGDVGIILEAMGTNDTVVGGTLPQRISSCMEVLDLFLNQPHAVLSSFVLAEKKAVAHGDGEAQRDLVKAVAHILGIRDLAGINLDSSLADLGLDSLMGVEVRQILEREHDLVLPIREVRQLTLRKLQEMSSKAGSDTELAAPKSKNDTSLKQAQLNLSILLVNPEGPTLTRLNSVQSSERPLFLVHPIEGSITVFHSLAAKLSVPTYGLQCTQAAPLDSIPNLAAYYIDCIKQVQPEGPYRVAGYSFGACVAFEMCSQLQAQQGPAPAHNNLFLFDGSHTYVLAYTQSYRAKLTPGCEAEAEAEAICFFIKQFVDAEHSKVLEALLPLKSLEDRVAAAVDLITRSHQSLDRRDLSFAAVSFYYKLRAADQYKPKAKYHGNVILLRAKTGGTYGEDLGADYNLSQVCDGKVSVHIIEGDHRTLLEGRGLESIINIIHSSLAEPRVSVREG

In the case of `CC(C)=CCC/C(C)=C/C=C/C(C)=C/C=C/C(C)=C/C=C/C=C(C)/C=C/C=C(C)/C=C/C=C(\C)CCC=C(C)C` [Lycopene], the “B = Percent Control of Lycopene alone” value in the assay on LDL is reported as 18^b Percent. Besides, the “antioxidant effectiveness relative to β-carotene” value with blood lymphocytes is recorded as “at least twice as effective”. For `CC[C@H](C)C(=O)O[C@H]1CCC=C2C=C[C@H](C)[C@H](CC[C@@H]3C[C@@H](O)CC(=O)O3)[C@H]21` [Mevastatin], in the assay on Cultured rat hepatocytes (24 h incubation, radiolabeled acetate), the “inhibition of cholesterol biosynthesis” value was 90%. For the compound `C=CCS[S+]([O-])CC=C` (centres unmarked) [allicin], the “inhibition of cholesterol biosynthesis” value with Cultured rat hepatocytes (concentration corresponding to its content in the extracts, before or after incubation with alliinase) was “does not exert any inhibition”. The “inhibition of fatty acid synthetase” value on fatty acid synthetase is recorded as “inhibited”.
